Key:
Triticum aestivum = experiment: In vivo analyses Part B: drought stress, spray application, appearance vs stressed control in categories, Triticum aestivum; parameters: key: 0: no positive effect; +: slight positive effect; ++: clear positive effect; +++: strong positive effect
Protocol: (§1) Seeds of monocotyledonous and dicotyledonous crop plants were sown in sandy loam in plastic pots, covered with soil or sand and cultivated in a greenhouse under good growth conditions. The test plants are treated at the early leaf stage (BBCH10-BBCH13). To assure uniform water supply before commencement of stress, the potted plants were supplied with water by dam irrigation prior to substance application. The inventive compounds were first formulated as wettable powders (WP) or dissolved in a solvent mixture. The further dilution was effected with water supplemented with 0.2% wetting agent (e.g. agrotin). The finished spray liquor was sprayed onto the green parts of the plant at an equivalent water application rate of 600 l/ha. Substance application was followed immediately by stress treatment of the plants. Drought stress was induced by gradual drying out under the following conditions: “Day”: 14 hours with illumination at ˜26-30° C. “Night”: 10 hours without illumination at ˜18-20° C. The duration of the respective stress phases was guided mainly by the condition of the stressed control plants. It was ended (by re-irrigating and transfer to a greenhouse with good growth conditions) as soon as irreversible damage was observed on the stressed control plants. The end of the stress phase was followed by an about 4-7-day recovery phase, during which the plants were once again kept under good growth conditions in a greenhouse. The duration of the recovery phase was guided mainly by when the trial plants had attained a state which enabled visual scoring of potential effects, and was therefore variable. Once this juncture had been reached, the appearance of the plants treated with test substances was recorded in comparison to the stressed control plants by the following categories: • 0 no positive effect • + slight positive effect • ++ clear positive effect • +++ strong positive effect In order to rule out any influence on the effects observed by any fungicidal or insecticidal action of the test compounds, it was additionally ensured that the tests proceeded without fungal infection or insect infestation. The values reported in tables B-1 and B-2 below are mean values of the results from at least three repeats. Effects of selected compounds of the general formula (I) under drought stress according to the following tables B-1 and B-2: […]

Brassica napus [1] = experiment: In vivo analyses Part B: drought stress, spray application, appearance vs stressed control in categories, Brassica napus; parameters: key: 0: no positive effect; +: slight positive effect; ++: clear positive effect; +++: strong positive effect
Protocol: as §1

Zea mays = experiment: In vivo analyses Part A: drought stress, spray application, visual damage scoring, Zea mays
Protocol: (§2) Seeds of monocotyledonous and dicotyledonous crop plants were sown in sandy loam in wood-fiber or plastic pots, covered with soil or sand and cultivated in a greenhouse under good growth conditions. The trial plants were treated at the early leaf stage (BBCH10-BBCH13). To assure uniform water supply before commencement of stress, the potted plants were supplied with water by dam irrigation prior to substance application. The inventive compounds formulated in the form of wettable powders (WP) were sprayed onto the green parts of the plants as an aqueous suspension at an equivalent water application rate of 600 l/ha with addition of 0.2% wetting agent (e.g. agrotin). Substance application was followed immediately by stress treatment of the plants. For this purpose, the wood-fiber pots were transferred in plastic inserts in order to prevent them from subsequently drying out too quickly. Drought stress was induced by gradual drying out under the following conditions: “Day”: 14 hours with illumination at ˜26-30° C. “Night”: 10 hours without illumination at ˜18-20° C. The duration of the respective stress phases was guided mainly by the condition of the stressed control plants. It was ended (by re-irrigating and transfer to a greenhouse with good growth conditions) as soon as irreversible damage was observed on the stressed control plants. The end of the stress phase was followed by an about 4-7-day recovery phase, during which the plants were once again kept under good growth conditions in a greenhouse. The duration of the recovery phase was guided mainly by when the trial plants had attained a state which enabled visual scoring of potential effects, and is therefore variable. Once this juncture was reached, the intensities of damage were scored visually in comparison to untreated, unstressed controls of the same age. The damage intensity was at first assessed in per cent. These values were then used to calculate the efficacy of the test compounds by the following formula: [formula] EF: Efficacy DIs: Damage intensity of the stressed control plants DIt: Damage intensity of the stressed plants treated with test compound The values reported in tables A-1 to A-3 below are mean values from at least one trial with at least two repeats, showing the effects of selected compounds of the general formula (I) under drought stress on various crop plants.

Brassica napus [2] = experiment: In vivo analyses Part A: drought stress, spray application, visual damage scoring, Brassica napus
Protocol: as §2

In the case of `CN(C)N(Cc1cccc(C#N)c1)C(=O)c1cnccc1C(F)(F)F` [B1-62], the “Effect (TRZAS)” value (Triticum aestivum; dosage 250 g/ha) is reported as “+” and the “Effect (BRSNS)” value (Brassica napus [1]; dosage 250 g/ha) is reported as “++”.

For `CCN(C)N(Cc1nccc(Cl)c1Cl)C(=O)c1ccccc1C(F)(F)F` [A5-40], the “Effect (TRZAS)” value (Triticum aestivum; dosage 250 g/ha) was “+” and the “Effect (BRSNS)” value (Brassica napus [1]; dosage 250 g/ha) was “+”.

`CN(C)N(Cc1ccccc1Cl)C(=O)c1cnccc1C(F)(F)F` [B1-1] was tested, and the “EF [%] (ZEAMX)” value (Zea mays; dosage 25 g/ha) was >5%.

For `CN(C)N(Cc1ccc(F)cc1F)C(=O)c1cnccc1C(F)(F)F` [B1-15], the “Effect (TRZAS)” value (Triticum aestivum; dosage 250 g/ha) was “+” and the “Effect (BRSNS)” value (Brassica napus [1]; dosage 250 g/ha) was “+++”.

`CN(C)N(Cc1c(Cl)cccc1Cl)C(=O)c1ccccc1Cl` [A10-7] was tested, and the “EF [%] (BRSNS)” value (Brassica napus [2]; dosage 250 g/ha) was >5%.

In the case of `CN(C)N(Cc1ccc2ccccc2n1)C(=O)c1cc(Cl)ccc1Cl` [A7-122], the “EF [%] (BRSNS)” value (Brassica napus [2]; dosage 25 g/ha) is reported as >5%.

For `CN(C)N(Cc1ccccn1)C(=O)c1ccccc1C(F)(F)F` [A1-21], the “EF [%] (BRSNS)” value (Brassica napus [2]; dosage 25 g/ha) was >5%.

`CN(C)N(CCc1cccc(Cl)c1)C(=O)c1ccccc1C(F)(F)F` [A1-613] was tested, and the “EF [%] (ZEAMX)” value (Zea mays; dosage 250 g/ha) was >5%.

In the case of `CN(C)N(Cc1ccccc1C(F)(F)F)C(=O)c1ccccc1C(F)(F)F` [A1-81], the “Effect (TRZAS)” value (Triticum aestivum; dosage 250 g/ha) is reported as “+” and the “Effect (BRSNS)” value (Brassica napus [1]; dosage 25 g/ha) is reported as “+”.

With `CN(C)N(Cc1ncc(C(F)(F)F)cc1Cl)C(=O)c1ccc(F)cc1C(F)(F)F` [A14-36] the “EF [%] (ZEAMX)” value (Zea mays; dosage 250 g/ha) was >5%.

`CN(C)N(Cc1ccccc1Cl)C(=O)c1ccc(C#N)cc1C(F)(F)F` [A48-1] was tested, and the “Effect (TRZAS)” value (Triticum aestivum; dosage 250 g/ha) was “+” and the “Effect (BRSNS)” value (Brassica napus [1]; dosage 25 g/ha) was “+++”.

With `COc1c(C)cnc(CN(C(=O)c2ccccc2Cl)N(C)C)c1C` [A10-37] the “EF [%] (ZEAMX)” value (Zea mays; dosage 250 g/ha) was >5%.

For `CN(C)N(Cc1ccccc1C#N)C(=O)c1ccncc1` [C1-61], the “EF [%] (BRSNS)” value (Brassica napus [2]; dosage 250 g/ha) was >5%.

In the case of `CN(C)N(Cc1ccc(Cl)cc1Cl)C(=O)c1ccccc1I` [A36-5], the “Effect (TRZAS)” value (Triticum aestivum; dosage 250 g/ha) is reported as “+” and the “Effect (BRSNS)” value (Brassica napus [1]; dosage 250 g/ha) is reported as “++”.

In the case of `CN(C)N(Cc1cccnc1C#N)C(=O)c1ccccc1Cl` [A10-679], the “Effect (BRSNS)” value (Brassica napus [1]; dosage 250 g/ha) is reported as “++”.

In the case of `CN(C)N(Cc1ccccc1C#N)C(=O)c1ccccc1Cl` [A10-61], the “EF [%] (BRSNS)” value (Brassica napus [2]; dosage 25 g/ha) is reported as >5%.

With `CN(C)N(Cc1c(Cl)c(Cl)c(C(F)(F)F)c(Cl)c1Cl)C(=O)c1ccc(F)cc1C(F)(F)F` [A14-680] the “Effect (BRSNS)” value (Brassica napus [1]; dosage 250 g/ha) was “++”.

In the case of `CN(C)N(Cc1ccccc1Cl)C(=O)c1cc(Cl)ccc1Cl` [A7-1], the “EF [%] (BRSNS)” value (Brassica napus [2]; dosage 25 g/ha) is reported as >5%.

With `CN(C)N(Cc1ncc(C(F)(F)F)cc1Cl)C(=O)c1ccc(Cl)cc1C(F)(F)F` [A51-36] the “Effect (TRZAS)” value (Triticum aestivum; dosage 25 g/ha) was “+” and the “Effect (BRSNS)” value (Brassica napus [1]; dosage 250 g/ha) was “+”.

With `COC(=O)c1ccccc1CN(C(=O)c1ccccc1C(F)(F)F)N(C)C` [A1-603] the “Effect (BRSNS)” value (Brassica napus [1]; dosage 250 g/ha) was “++”.

In the case of `COc1ccccc1C(=O)N(Cc1ccccc1Cl)N(C)C` [A8-1], the “EF [%] (BRSNS)” value (Brassica napus [2]; dosage 2.5 g/ha) is reported as >5%.

With `CN(C)N(Cc1ccc(Cl)cc1Cl)C(=O)c1ccc(Cl)cc1Cl` [A12-5] the “EF [%] (BRSNS)” value (Brassica napus [2]; dosage 25 g/ha) was >5%.

With `CN(C)N(Cc1cc(C(F)(F)F)ccc1Cl)C(=O)c1ccc(Cl)cc1Cl` [A12-86] the “EF [%] (BRSNS)” value (Brassica napus [2]; dosage 25 g/ha) was >5%.

For `CN(C)N(Cc1cccnc1C#N)C(=O)c1cnccc1C(F)(F)F` [B1-679], the “Effect (BRSNS)” value (Brassica napus [1]; dosage 250 g/ha) was “++”.

With `CN(C)N(Cc1ncc(C(F)(F)F)cc1Cl)C(=O)c1ccncc1C(F)(F)F` [C2-36] the “EF [%] (BRSNS)” value (Brassica napus [2]; dosage 25 g/ha) was >5%.

With `CN(C)N(Cc1ncc(C(F)(F)F)cc1Cl)C(=O)c1ccc(Cl)cc1Cl` [A12-36] the “Effect (BRSNS)” value (Brassica napus [1]; dosage 100 g/ha) was “+”.

In the case of `CN(C)N(Cc1ccc(Cl)nc1)C(=O)c1ccc(Cl)cc1Cl` [A12-94], the “Effect (TRZAS)” value (Triticum aestivum; dosage 250 g/ha) is reported as “+” and the “Effect (BRSNS)” value (Brassica napus [1]; dosage 25 g/ha) is reported as “+”.

In the case of `CN(C)N(Cc1cc(Cl)c(Cl)cc1Cl)C(=O)c1ccc(F)cc1C(F)(F)F` [A14-138], the “Effect (TRZAS)” value (Triticum aestivum; dosage 25 g/ha) is reported as “+” and the “Effect (BRSNS)” value (Brassica napus [1]; dosage 25 g/ha) is reported as “+”.

With `CN(C)N(Cc1ccc(Cl)nc1)C(=O)c1ccccc1Cl` [A10-94] the “Effect (BRSNS)” value (Brassica napus [1]; dosage 250 g/ha) was “+”.

In the case of `CN(C)N(Cc1ncc(C(F)(F)F)cc1Cl)C(=O)c1ccc(F)cc1F` [A52-36], the “Effect (TRZAS)” value (Triticum aestivum; dosage 250 g/ha) is reported as “+” and the “Effect (BRSNS)” value (Brassica napus [1]; dosage 25 g/ha) is reported as “+++”.

From patent US20180206495A1, “SUBSTITUTED ARYL AND HETEROARYL CARBOXYLIC ACID HYDRAZIDES OR SALTS THEREOF AND USE THEREOF TO INCREASE STRESS TOLERANCE IN PLANTS” (BAYER CROPSCIENCE AKTIENGESELLSCHAFT, priority 2015, published 2018)
